Test in all cases: DTP human tumour cell line panel, 48 h
For experiment [1], the system named is HCC-2998 colon.
The test system of experiment [2] is HS 578T breast.
For experiment [3], the system named is K-562 leukemia.
For experiment [4], the system named is OVCAR-3 ovarian.
For experiment [5], the system named is OVCAR-8 ovarian.
The test system of experiment [6] is RXF 393 renal.
Experiment [7] has as its system SK-MEL-2 melanoma.
For experiment [8], the system named is TK-10 renal.
The subject of experiment [9] is A498 renal.
For experiment [10], the system named is SNB-75 CNS.

The structures appear in SMILES notation.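 Briefly, cells in 96-well plates were exposed to five compound concentrations for 48 h, and endpoints were estimated by linear interpolation. GI50 marks 50% less growth. Definition used: TGI = concentration required for complete inhibition of growth.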

On to `COc1ncnc(S(=O)(=O)c2ccc(N=C3C(=O)N(CN4CCN(c5cc6c(cc5F)c(=O)c(C(=O)O)cn6C5CC5)CC4)c4ccc(Cl)cc43)cc2)c1OC`, for which the GI50 was 37.9 µM in experiment [1]; 6.16 µM in [2]; 24.6 µM in experiment [3]; above 50 µM in experiment [4]; 32.9 µM in [5]; above 50 µM in experiment [6]. Also, the GI50 in experiment [7] is above 50 µM; in [8], 8.78 µM. Also, the TGI in [1], in experiment [2], in [3], in [4], in experiment [5] and in experiment [6] was above 50 µM in each case. Also, the TGI in experiment [7] was above 50 µM; in experiment [8], 36.7 µM.

For `CN(C)CCSS(=O)(=O)O`, the TGI in experiment [9], in experiment [2], in experiment [3], in experiment [4], in experiment [5] and in [6] was above 100 µM in each case. Also, the TGI in [7], in experiment [10] and in [8] was above 100 µM in each case.

For the compound `Cc1nc2c(n1C)C(=O)c1ccccc1C2=O`, the GI50 in experiment [9] was above 100 µM; in experiment [1], 67.6 µM; in experiment [2] it was above 100 µM; in experiment [3] it was 59.3 µM; in [4], 25.2 µM; in [5], above 100 µM. For the same compound, the GI50 in experiment [7], in experiment [10] and in experiment [8] was above 100 µM each time. Also, the TGI was above 100 µM in experiment [9]; above 100 µM in experiment [1]; above 100 µM in [2]; above 100 µM in experiment [3]; 68.6 µM in [4]; above 100 µM in [5]. Besides, the TGI in experiment [7], in experiment [10] and in experiment [8] was above 100 µM throughout.

With `Cc1ccc(N=Nc2c(O)ccc3ccccc23)cc1`, the TGI in [9], in [2], in experiment [4], in experiment [5], in [6] and in experiment [7] was above 100 µM throughout. Moreover, the TGI in experiment [10] and in [8] was above 100 µM in each case.

`Cn1c(-c2ccc(/C=N/NC(=S)N/N=C/c3ccc(-c4c[n+]5ccsc5n4C)cc3)cc2)c[n+]2ccsc12`: the TGI in experiment [1], in experiment [2], in [5], in experiment [10] and in experiment [8] was above 100 µM in each case.

As to `Cc1c(-c2ccnc(N)n2)c2c(n1Cc1ccccc1)C(=O)c1ccccc1C2=O`, the GI50 in experiment [1] was 12.9 µM; in experiment [2] it was 2.62 µM; in experiment [3], 2.92 µM; in experiment [4] it was 2.83 µM; in experiment [6], 11.3 µM; in [7] it was 11.3 µM. The GI50 in experiment [8] was 17.3 µM. For the same compound, the TGI in experiment [1] came to 35.8 µM; in [2], 8.05 µM; in experiment [3], 44.4 µM; in experiment [4], 21.3 µM; in experiment [6], 38.2 µM; in experiment [7], 47.7 µM. For the same compound, the TGI in experiment [8] came out at 66.8 µM.

On to `NCCOCCOCCNc1nc(-c2ccc(Cl)cc2)nc(N2CCN(c3ccccn3)CC2)n1`, for which the GI50 in [9] was 1.33 µM; in [1] it was 1.75 µM; in [2] it was 1.92 µM; in experiment [4], 2.74 µM; in experiment [5] it was 4.06 µM; in experiment [6] it was 2.28 µM. In [10], the GI50 is 2.32 µM. Also, the TGI in experiment [9] was 7.71 µM; in experiment [1] it was 3.29 µM; in experiment [2], 4.6 µM; in experiment [4] it was 6.76 µM; in experiment [5], 30.6 µM; in [6], 5.76 µM. This compound also yielded a concentration for total growth inhibition (TGI) in experiment [10] of 7.45 µM.

As for `CC(C)(C)OC(=O)NCCCn1c2c(c3ccccc3c1=O)C(=O)c1ccccc1-2`, the GI50 in experiment [9] was 46.1 µM; in [2] it was 15.8 µM; in experiment [3] it was above 100 µM; in experiment [4] it was 8.73 µM; in experiment [5], 13.3 µM; in [7], 49.3 µM. The GI50 in experiment [8] is 22.3 µM. The TGI is above 100 µM in experiment [9]; 71.6 µM in experiment [2]; above 100 µM in experiment [3]; 26.3 µM in experiment [4]; 58.2 µM in experiment [5]; above 100 µM in experiment [7]. The TGI in [8] is 63 µM.

For the compound `COc1ccc(C(=O)NNc2nc(Cl)nc(N3CCN(C(c4ccccc4)c4ccccc4)CC3)n2)cc1`, the GI50 was 10.4 µM in experiment [9]; 1.49 µM in experiment [1]; 1.95 µM in [2]; 1.89 µM in experiment [4]; 1.89 µM in [5]; 1.83 µM in [6]. In addition, the GI50 is 2.14 µM in experiment [7], 1.65 µM in [10] and above 100 µM in experiment [8]. Further, the TGI in experiment [9] was determined as 23.2 µM; in [1], 2.89 µM; in experiment [2], 4.76 µM; in experiment [4], 3.45 µM; in [5], 4.36 µM; in experiment [6] it was 3.84 µM. Moreover, the values for the concentration for total growth inhibition (TGI) in [7], in experiment [10] and in [8] were 4.91 µM, 3.49 µM and above 100 µM, respectively.

Consider `Cc1cc(N=C2C=C(Br)C(=O)C(Br)=C2)cc(CN(CC(=O)O)CC(=O)O)c1O`, for which the TGI in experiment [9], in experiment [1], in experiment [2], in experiment [3], in experiment [4] and in experiment [5] was above 100 µM throughout. Further, the TGI in [6], in [7] and in [10] was above 100 µM throughout.

As for `O=c1[nH]c2ccccc2n1CCCN1CCC(n2c(=O)[nH]c3cc(Cl)ccc32)CC1`, the TGI in experiment [9] turned out to be 42.9 µM; in experiment [1] it was 30.4 µM; in experiment [2] it was 49.7 µM; in experiment [3], 65 µM; in experiment [4], 38.9 µM; in experiment [5], 38.6 µM. In addition, the total growth inhibition concentration (TGI) in experiment [6] was 29.9 µM; in experiment [7] it was 35.7 µM; in experiment [8], 39.4 µM.

(Values after PubChem BioAssay (NCI).)
